Assay [1] has as its target T1, Dipeptidyl peptidase 2 (Homo sapiens, UniProt Q9UHL4).
For assay [2], the target named is T2, Dipeptidyl peptidase 4 (Homo sapiens, UniProt P27487).
For assay [3], the target named is T1, Dipeptidyl peptidase 2. The assay can be described thus: Inhibitory activity of compound against Dipeptidylpeptidase II (DPP II).
For assay [4], the target named is T1, Dipeptidyl peptidase 2. This is another data set of the same source.
Assay [5] concerns the target T2, Dipeptidyl peptidase 4. This is another data set of the same source.

SMILES strings stand for the structures. pIC50: −log10 of the molar value. Where only a bound is given, the exact number is not on record here.

T2 sequence (P27487 whole entry): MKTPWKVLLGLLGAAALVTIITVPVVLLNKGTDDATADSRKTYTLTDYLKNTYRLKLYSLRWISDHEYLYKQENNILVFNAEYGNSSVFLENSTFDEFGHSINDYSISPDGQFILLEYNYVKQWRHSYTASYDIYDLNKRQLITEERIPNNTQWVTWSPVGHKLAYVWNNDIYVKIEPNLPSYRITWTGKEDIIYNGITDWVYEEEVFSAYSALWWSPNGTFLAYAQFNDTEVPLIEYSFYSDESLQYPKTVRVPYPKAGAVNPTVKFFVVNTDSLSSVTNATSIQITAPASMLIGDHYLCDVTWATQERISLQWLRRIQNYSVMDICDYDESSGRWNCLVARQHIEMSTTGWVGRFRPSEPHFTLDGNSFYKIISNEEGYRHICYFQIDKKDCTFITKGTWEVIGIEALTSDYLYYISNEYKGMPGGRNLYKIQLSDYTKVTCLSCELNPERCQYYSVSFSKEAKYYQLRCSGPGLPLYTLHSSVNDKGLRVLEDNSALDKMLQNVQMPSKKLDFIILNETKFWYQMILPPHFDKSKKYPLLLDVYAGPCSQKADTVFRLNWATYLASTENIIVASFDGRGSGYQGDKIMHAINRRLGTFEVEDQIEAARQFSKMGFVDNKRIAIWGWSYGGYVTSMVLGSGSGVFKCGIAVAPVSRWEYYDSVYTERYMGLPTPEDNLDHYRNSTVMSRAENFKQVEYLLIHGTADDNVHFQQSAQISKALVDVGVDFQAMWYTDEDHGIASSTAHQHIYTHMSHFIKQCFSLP

In the case of `NCCCCC(N)C(=O)N1CCC(O)C1` (stereo not drawn), the pIC50 is 4.32 in assay [1] and 3.30 in assay [2].

On to `[N-]=[N+]=NC1CCN(C(=O)C(N)CCCCN)C1` (stereo not drawn), for which the pIC50 in assay [1] is 5.31.

Regarding `N#CC1CCCCN1C(=O)C(N)CCCCN` (stereo not drawn), the pIC50 was 5.82 in assay [1] and 4.29 in assay [2].

Regarding `NCCCCC(N)C(=O)N1CCC(OC(=O)c2ccccc2)C1` (stereo not drawn), the pIC50 in assay [1] was 4.11; in assay [2], less than 3.00.

Consider `N=C(N)NCCCC(N)C(=O)N1CCCCC1` (stereo not drawn), for which the pIC50 in assay [1] was 6.20; in assay [2] it was 4.74.

In the case of `CCCC(N)C(=O)N1CCCCC1` (stereo not drawn), the pIC50 in assay [1] was 4.24; in assay [2] it was 3.64.

Consider `CCC(C)C(N)C(=O)N(CC)CC` (stereo not drawn), for which the pIC50 in assay [1] and in assay [2] was less than 3.30 throughout.

For `NCC[C@@H](N)C(=O)N1CCCCC1`, the pIC50 in assay [1] was 3.89; in assay [2], less than 3.00.

Turning to `NCCCC[C@@H](N)C(=S)N1CCCCC1`, the pIC50 is 6.31 in assay [1] and less than 3.00 in assay [2].

As to `N#C[C@@H]1CCCCN1C(=O)C(N)CCN` (stereo partly drawn), the pIC50 in assay [3] was 7.42; in assay [2], 3.82.

On to `NC(CO)C(=O)N1CCCCC1` (stereo not drawn), for which the pIC50 in assay [1] was 4.21; in assay [2], 4.17.

As for `CCCCC(N)C(=O)N1CCCCC1` (stereo not drawn), the pIC50 in assay [1] is 4.49; in assay [2] it was 3.60.

`NCC(N)C(=O)N1CCCCC1` (stereo not drawn): the negative logarithm of the IC50 (pIC50) in assay [1] was 5.74; in assay [2] it was less than 3.00.

For the compound `CCC(C)C(N)C(=O)N1CCC(O)C1` (stereo not drawn), the pIC50 in assay [1] is 3.52; in assay [2] it was 4.03.

On to `CCC(C)C(N)C(=O)N(C)C` (stereo not drawn), for which the pIC50 was less than 3.00 in assay [1] and 3.44 in assay [2].

`NC(C(=O)N1CCCCC1)C1CCCCC1` (stereo not drawn): the pIC50 in assay [1] was 5.00; in assay [2] it was 3.66.

Turning to `CCC(C)C(N)C(=O)N1CCC(OC(=O)c2ccccc2)C1` (stereo not drawn), the pIC50 in assay [1] is 3.80; in assay [2], less than 3.30.

For `CCC(C)C(N)C(=O)N1CCCCCC1` (stereo not drawn), the pIC50 in assay [1] is 3.64; in assay [2] it was 3.43.

As to `CCC(C)C(N)C(=O)NC1CCCC1` (stereo not drawn), the results for the pIC50 in assay [1] and in assay [2] were 3.30 and less than 3.00, respectively.

For `CCC(C)C(N)C(=O)N1CCC(F)C1` (stereo not drawn), the pIC50 was 3.95 in assay [1] and 5.46 in assay [2].

`CCC(N)C(=O)N1CCCCC1` (stereo not drawn): the values for the pIC50 in assay [1] and in assay [2] were 4.05 and 3.60, respectively.

Take `NCCC(N)C(=O)N1CCNCC1` (stereo not drawn): the pIC50 in assay [1] was 4.53; in assay [2], less than 3.00.

As to `NCC[C@H](N)C(=S)N1CCCCC1`, the values for the pIC50 in assay [1] and in assay [2] were 6.66 and less than 3.00, respectively.

In assay [1], `CCC(C)C(N)C(=O)N1CC=CC1` (stereo not drawn) gave a pIC50 of 3.54.

Consider `NCCCC(N)C(=O)N1CCSC1` (stereo not drawn), for which the pIC50 was 6.12 in assay [1] and 4.09 in assay [2].

`NCCCCC(N)C(=O)N1CCSC1` (stereo not drawn): the pIC50 in assay [4] was 5.52; in assay [1] it was 5.52; in assay [5] it was 3.50; in assay [2] it was 3.50.

For the compound `NCCCCC(N)C(=O)N1CCCCCC1` (stereo not drawn), the pIC50 in assay [1] was 4.28; in assay [2] it was less than 3.00.

Turning to `NCCC(N)C(=O)N1CCOCC1` (stereo not drawn), the pIC50 was 6.29 in assay [1] and less than 3.00 in assay [2].

Take `CCCN(C)C(=O)C(N)C(C)CC` (stereo not drawn): the pIC50 was 3.67 in assay [1] and 3.42 in assay [2].

On to `O=C(C1CCCS1)N1CCCC1` (stereo not drawn), for which the negative logarithm of the IC50 (pIC50) in assay [1] and in assay [2] was less than 3.30 each time.

In assay [2], `O=C(CNC1CCCC1)NC(c1ccccc1)P(=O)(Oc1ccccc1)Oc1ccccc1` (stereo not drawn) gave a pIC50 of less than 3.90.

On to `CCC(C)C(N)C(=O)N1CCC1` (stereo not drawn), for which the pIC50 in assay [1] was 3.14; in assay [2] it was 4.30.

Consider `NCCCCC(N)C(=O)N1CCC1` (stereo not drawn), for which the pIC50 was 3.80 in assay [1] and 3.30 in assay [2].

As to `NCCC[C@H](N)C(=S)N1CCCCC1`, the pIC50 in assay [1] was 6.70; in assay [2], less than 3.00.

In the case of `NCCC(N)C(=O)N1CCSC1` (stereo not drawn), the pIC50 in assay [1] was 6.85; in assay [2], 3.54.

Consider `CCC(C)C(N)C(=O)N1CCC(N=[N+]=[N-])C1` (stereo not drawn), for which the pIC50 in assay [1] is 4.37; in assay [2], 3.97.

On to `NCCCCC(N)C(=O)N1CC=CCC1` (stereo not drawn), for which the pIC50 in assay [1] was 4.96; in assay [2], less than 3.30.

Regarding `O=C([C@@H]1CCCN1)N1CCCC1`, the pIC50 in assay [1] was less than 3.30.

With `CCC(C)C(N)C(=O)N(C)CC` (stereo not drawn), the results for the negative logarithm of the IC50 (pIC50) in assay [1] and in assay [2] were less than 3.30 and 3.78, respectively.

Regarding `CCC(C)C(N)C(=O)N1CC=CCC1` (stereo not drawn), the pIC50 in assay [1] and in assay [2] was 4.28 in each case.

In the case of `N#C[C@@H]1CCCN1C(=O)[C@@H](N)CCCCN`, the pIC50 in assay [1] is 6.00; in assay [2], 6.49.

As for `N[C@@H](CC(=O)O)C(=O)N1CCCC1`, in assay [1], the negative-log IC50 (pIC50) was less than 3.30.

Turning to `CCC(C)C(N)C(=O)N1CCCCC1` (stereo not drawn), the pIC50 in assay [1] was 4.23.

For the compound `NCC(=O)N1CCCC1`, the pIC50 in assay [1] is less than 3.00.

Take `NCCCC[C@H](N)C(=O)N1CCCCC1` (stereo in doubt; 8.4): the figures for the pIC50 in assay [1] and in assay [2] were 5.80 and 3.61, respectively.

In the case of `NCCCC[C@H](N)C(=O)N1CCCCC1` (stereo in doubt; 9.5), the pIC50 was 5.68 in assay [1] and 3.87 in assay [2].

Turning to `NCCC(N)C(=O)N1CCCCC1` (stereo in doubt; 9.7), the pIC50 in assay [1] is 6.89; in assay [2] it was less than 3.00.

In the case of `NCCC(N)C(=O)N1CCCCC1` (stereo in doubt; 9.9), the pIC50 in assay [1] is 5.94; in assay [2], 3.30.

`NCCC(N)C(=O)N1CCCCC1` (stereo in doubt; 9.10): the negative-log IC50 (pIC50) in assay [1] is 3.72; in assay [2] it was less than 3.00.

Values taken from ChEMBL document CHEMBL1144883, “Design, synthesis, and SAR of potent and selective dipeptide-derived inhibitors for dipeptidyl peptidases” (J Med Chem, 2003).
